Data taken from article PMC7570671, “Synthesis and Biological Evaluation of Novel Benodanil-Heterocyclic Carboxamide Hybrids as a Potential Succinate Dehydrogenase Inhibitors” (Molecules, 2020).

Target: T1, succinate dehydrogenase (SDH) from mitochondria of R. solani (Rhizoctonia solani, UniProt A0A0K6FYZ3+A0A0K6G4J6+A0A0K6G6J3)
T1 construct: gene sdhB; native complex II in isolated mitochondria, not purified; with Succinate dehydrogenase [ubiquinone] flavoprotein subunit, mitochondrial
Assay: succinate:ubiquinone/DCPIP reductase inhibition in isolated mitochondria, absorbance at […] nm
Type: biochemical

T1 sequence (A0A0K6FYZ3 29-278): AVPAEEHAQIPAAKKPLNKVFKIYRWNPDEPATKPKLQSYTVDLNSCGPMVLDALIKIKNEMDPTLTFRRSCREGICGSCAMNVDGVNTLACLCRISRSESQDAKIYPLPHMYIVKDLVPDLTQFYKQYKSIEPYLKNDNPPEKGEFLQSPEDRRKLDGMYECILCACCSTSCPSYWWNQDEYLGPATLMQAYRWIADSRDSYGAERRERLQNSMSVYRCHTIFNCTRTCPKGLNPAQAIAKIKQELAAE
T1 sequence (A0A0K6G4J6 37-154): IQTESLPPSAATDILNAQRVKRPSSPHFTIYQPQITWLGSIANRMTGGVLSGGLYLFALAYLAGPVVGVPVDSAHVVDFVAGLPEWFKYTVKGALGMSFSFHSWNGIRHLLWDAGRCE
T1 sequence (A0A0K6G6J3 32-176): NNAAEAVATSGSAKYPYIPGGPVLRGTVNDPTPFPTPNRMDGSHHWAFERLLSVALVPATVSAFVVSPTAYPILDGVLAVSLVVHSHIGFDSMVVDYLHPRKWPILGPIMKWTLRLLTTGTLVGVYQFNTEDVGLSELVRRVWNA
T1 sequence (A0A0K6G1V0 48-643 partner): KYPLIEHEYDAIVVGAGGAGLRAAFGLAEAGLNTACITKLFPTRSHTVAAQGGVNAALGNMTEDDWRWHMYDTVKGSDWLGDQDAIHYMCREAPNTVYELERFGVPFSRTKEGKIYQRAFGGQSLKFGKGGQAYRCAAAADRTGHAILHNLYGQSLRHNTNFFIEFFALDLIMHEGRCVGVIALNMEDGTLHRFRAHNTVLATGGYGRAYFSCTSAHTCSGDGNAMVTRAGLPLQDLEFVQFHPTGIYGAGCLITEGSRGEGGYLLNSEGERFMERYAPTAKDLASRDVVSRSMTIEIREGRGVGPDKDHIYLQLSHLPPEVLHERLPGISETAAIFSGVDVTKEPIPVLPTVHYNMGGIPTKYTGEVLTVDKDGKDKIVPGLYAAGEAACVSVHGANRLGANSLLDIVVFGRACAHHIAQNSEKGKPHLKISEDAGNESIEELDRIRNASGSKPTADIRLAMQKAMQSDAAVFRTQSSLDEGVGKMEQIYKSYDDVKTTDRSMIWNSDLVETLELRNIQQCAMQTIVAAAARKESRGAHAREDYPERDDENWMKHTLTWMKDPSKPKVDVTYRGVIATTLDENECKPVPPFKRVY

Row | SMILES | IC50 [µM]
1 | O=C(Nc1ccccc1)c1ccccc1I [benodanil] | 192
2 | CC(C)c1cccc(NC(=O)c2ccccc2NC(=O)c2cn(C)nc2C(F)F)c1 [compound 17] | 127
3 | Cn1cc(C(=O)Nc2ccccc2C(=O)Nc2cccc(C(F)(F)F)c2)c(C(F)F)n1 [compound 18] | 130
